Consider 34 compounds from patent publication US20250313555A1, “2-SUBSTITUTED THIAZOLE AND BENZOTHIAZOLE COMPOSITIONS AND METHODS AS DUX4 INHIBITORS” (ALTAY THERAPEUTICS, INC., priority 2022, published 2025).

Type in all cases: cell-based
Series [1] is described as follows: Cell cytotoxicity 50 assay (CC50), MB200 cells, cell titer glo. To be noted: human. The procedure, abridged:
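MB200 cells were seeded at 10 k/well in F10 medium with bFGF, 15% FBS and dexamethasone. Cells were exposed to serially diluted compound (from 10 mM stock) in triplicate for 72 h at 37 °C. Viability was read by CellTiter-Glo luminescence and CC50 was fitted.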

The nature of series [2]: Cell cytotoxicity 50 assay (CC50), HEK cells. The note with it: human. In short, it runs like this:
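Starting from a 10 mM drug solution, serial dilutions were made in medium and added onto HEK cells, which were then incubated 72 h at 37 °C. Viability was read as CellTiter-Glo luminescence after 5 min, and CC50 was obtained by curve fitting.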

The next series deals with MBD3L2 RNA. Briefly: RNA isolation and qPCR to determine MBD3L2 RNA levels in FSHD cells. To be noted: 48 hrs. The procedure, abridged:
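FSHD cells were treated one day after seeding with a DUX4 inhibitor (11 μM or 3.6 μM) for 48 h. Total RNA was DNase-treated and reverse-transcribed with random hexamers and M-MLV. MBD3L2 was quantified by SYBR Green qPCR in triplicate against EEF1A as the reference gene.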
(In qPCR the cycle at which signal appears reflects the starting amount.)

Structures are written as SMILES.

In general, CC50 refers to the concentration at which the toxic effect on the cells reaches its halfway point. `CN(C(=O)CCCN1C(=O)CCC1=O)c1ccc(Cc2nc3ccccc3s2)cc1` [Compound 169]: the CC50 at 72 h in series [1] and in series [2] was above 10 µM throughout. The “qPCR MBD3L2 Inhib at 11 µM” value with MBD3L2 RNA is on record as “YES”.
`CC(=O)NCCCc1nc(CCCC(=O)Nc2ccc(-c3nc4cc(F)ccc4s3)cc2)co1` [Compound 138]: the values for the CC50 at 72 h in series [1] and in series [2] were above 10 µM and 1 to 10 µM, respectively. Also, in the series with MBD3L2 RNA, the “qPCR MBD3L2 Inhib at 11 µM” value is on record as “YES”.
The corresponding values for `CC(=O)NCCCNC(=O)C12CCC(c3nc4ccccc4s3)(CC1)CC2` [Compound 173] are above 10 µM, above 10 µM and “YES”.
The corresponding values for `O=C(CCCN1C(=O)CCC1=O)N[C@@H]1CC[C@@H](c2nc3ccccc3s2)C1` [Compound 162] are above 10 µM, above 10 µM and “YES”.
`CC(=O)NCCCNC(=O)c1cc(C#N)cc(-c2nc3cc(F)ccc3s2)c1` [Compound 188]: the CC50 at 72 h in series [1] and in series [2] was above 10 µM in each case. Moreover, the “qPCR MBD3L2 Inhib at 11 µM” value with MBD3L2 RNA is on record as “YES”.
As for `CC(=O)N[C@@H]1CC[C@@H](C(=O)Nc2nc3ccccc3s2)C1` [Compound 185], the CC50 at 72 h in series [1] and in series [2] was above 10 µM each time. Also, in the series on MBD3L2 RNA, the “qPCR MBD3L2 Inhib at 11 µM” value is given as “YES”.
Turning to `O=C(CCCN1C(=O)CCC1=O)Nc1nc2ccccc2s1` [Compound 108], in the series on MBD3L2 RNA, the “qPCR MBD3L2 Inhib at 11 µM” value is “YES”.
As to `O=C(CCCN1C(=O)CCC1=O)N[C@H]1CC[C@H](c2nc3ccccc3s2)C1` [Compound 161], the “qPCR MBD3L2 Inhib at 11 µM” value in the series with MBD3L2 RNA is reported as “YES”.
On to `O=C(CCCN1C(=O)CCC1=O)NC1CCC(Cc2nc3ccccc3s2)C1` (centres unmarked) [Compound 158], for which the half-maximal cytotoxic concentration (CC50) at 72 h in series [1] and in series [2] was above 10 µM each time. Also, in the series with MBD3L2 RNA, the “qPCR MBD3L2 Inhib at 11 µM” value was “YES”.
With `CC(=O)NCCCC(=O)Nc1nc2ccccc2s1` [Compound 107], the CC50 at 72 h in series [1] and in series [2] was above 10 µM throughout. In addition, in the series with MBD3L2 RNA, the “qPCR MBD3L2 Inhib at 11 µM” value is “YES”.
With `CC(=O)NCCCC(=O)N[C@@H]1CC[C@H](c2nc3ccccc3s2)C1` [Compound 114], the CC50 at 72 h in series [1] and in series [2] was above 10 µM each time. For the same compound, in the series with MBD3L2 RNA, the “qPCR MBD3L2 Inhib at 11 µM” value was “YES”.
As to `O=C(NCCN1C(=O)CCC1=O)c1ccc(-c2nc3ccccc3s2)cc1` [Compound 22], the CC50 at 72 h in series [1] and in series [2] was above 10 µM each time. Further, the “qPCR MBD3L2 Inhib at 11 µM” value in the series on MBD3L2 RNA was “YES”.
With `CC(=O)NCCCC(=O)N[C@H]1CC[C@H](c2nc3ccccc3s2)C1` [Compound 115], the CC50 at 72 h in series [1] and in series [2] was above 10 µM each time. The “qPCR MBD3L2 Inhib at 11 µM” value in the series with MBD3L2 RNA is on record as “YES”.
In the case of `O=C(CCCN1C(=O)CCC1=O)N[C@H]1C[C@@H](c2nc3ccccc3s2)C1` [Compound 97], the CC50 at 72 h in series [1] and in series [2] was above 10 µM each time. Further, in the series on MBD3L2 RNA, the “qPCR MBD3L2 Inhib at 11 µM” value is on record as “YES”.
`CC(=O)NC1CCC(C(=O)Nc2nc3ccccc3s2)C1` (centres unmarked) [Compound 131]: the half-maximal cytotoxic concentration (CC50) at 72 h in series [1] and in series [2] was above 10 µM each time. Also, the “qPCR MBD3L2 Inhib at 11 µM” value in the series on MBD3L2 RNA was “YES”.
On to `O=C(CCCN1C(=O)CCC1=O)NC1CCCC1c1nc2ccccc2s1` (centres unmarked) [Compound 92], for which the CC50 at 72 h in series [1] and in series [2] was above 10 µM throughout. In the series on MBD3L2 RNA, the “qPCR MBD3L2 Inhib at 11 µM” value is given as “YES”.
Consider `CC(C)(NC(=O)CCCN1CCCC1=O)c1ccc(-c2nc3ccccc3s2)cc1` [Compound 110], for which the CC50 at 72 h in series [1] and in series [2] was above 10 µM each time. In the series with MBD3L2 RNA, the “qPCR MBD3L2 Inhib at 11 µM” value is “YES”.
As for `CN(C(=O)CCC1CCC(=O)N1)c1ccc(-c2nc3ccccc3s2)cc1` (centres unmarked) [Compound 177], the 50% cytotoxic concentration (CC50) at 72 h in series [1] and in series [2] was above 10 µM throughout. In the series with MBD3L2 RNA, the “qPCR MBD3L2 Inhib at 11 µM” value was “YES”.
As to `CC(=O)NCCCC(=O)Nc1ccc(-c2nccs2)cc1` [Compound 70], the cytotoxic concentration (CC50) at 72 h in series [1] and in series [2] was above 10 µM each time. Further, the “qPCR MBD3L2 Inhib at 11 µM” value in the series with MBD3L2 RNA is given as “YES”.
For the compound `O=C(CCCN1C(=O)CCC1=O)NC1CCC(c2nc3ccccc3s2)C1` (centres unmarked) [Compound 90], the CC50 at 72 h in series [1] and in series [2] was above 10 µM in each case. The “qPCR MBD3L2 Inhib at 11 µM” value in the series with MBD3L2 RNA is given as “YES”.
For the compound `CC(=O)NC1CCC(C(=O)N[C@H]2CC[C@H](c3nc4ccccc4s3)CC2)C1` (some centres unmarked) [Compound 134], the CC50 at 72 h in series [1] and in series [2] was above 10 µM each time. The “qPCR MBD3L2 Inhib at 11 µM” value in the series with MBD3L2 RNA is given as “YES”.
For `CC(=O)NCCCC(=O)N[C@H]1CC[C@@H](Cc2nc3ccccc3s2)CC1` [Compound 171], the cytotoxic concentration (CC50) at 72 h in series [1] and in series [2] was above 10 µM each time. For the same compound, the “qPCR MBD3L2 Inhib at 11 µM” value in the series with MBD3L2 RNA is on record as “YES”.
Turning to `O=C(CCC1CCC(=O)N1)Nc1ccc(-c2nc3ccccc3s2)o1` (centres unmarked) [Compound 179], the CC50 at 72 h in series [1] and in series [2] was above 10 µM throughout. Further, the “qPCR MBD3L2 Inhib at 11 µM” value in the series on MBD3L2 RNA is “YES”.
Turning to `CC(=O)NCCCC(=O)Nc1nc(-c2ccccc2)cs1` [Compound 126], the 50% cytotoxic concentration (CC50) at 72 h in series [1] and in series [2] was above 10 µM each time. Further, in the series on MBD3L2 RNA, the “qPCR MBD3L2 Inhib at 11 µM” value is given as “YES”.
As for `CC(=O)NCCCC(=O)N[C@H]1C[C@H](c2nc3ccccc3s2)C1` [Compound 112], the CC50 at 72 h in series [1] and in series [2] was above 10 µM in each case. Also, the “qPCR MBD3L2 Inhib at 11 µM” value in the series on MBD3L2 RNA is “YES”.
On to `O=C(CCCc1cccnc1)N[C@H]1CC[C@H](c2nc3ccccc3s2)CC1` [Compound 164], for which the CC50 at 72 h in series [1] and in series [2] was above 10 µM throughout. For the same compound, the “qPCR MBD3L2 Inhib at 11 µM” value in the series with MBD3L2 RNA is reported as “YES”.
As for `CC(=O)NCCCC(=O)Nc1cc(C)cc(-c2nc3ccccc3s2)c1` [Compound 72], the CC50 at 72 h in series [1] and in series [2] was above 10 µM each time. The “qPCR MBD3L2 Inhib at 11 µM” value with MBD3L2 RNA was “YES”.
As to `CC(=O)NCCCC(=O)Nc1cc(Cl)cc(-c2nc3ccccc3s2)c1` [Compound 101], the cytotoxic concentration (CC50) at 72 h in series [1] and in series [2] was above 10 µM throughout. Also, the “qPCR MBD3L2 Inhib at 11 µM” value with MBD3L2 RNA is “YES”.
For the compound `O=C(NCCc1cncnc1)c1ccc(-c2nc3ccccc3s2)cc1` [Compound 11], the CC50 at 72 h in series [1] and in series [2] was above 10 µM in each case. Besides, the “qPCR MBD3L2 Inhib at 11 µM” value with MBD3L2 RNA is on record as “YES”.
With `O=C(CCCc1cccnc1)NC1CCC(c2nc3ccccc3s2)C1` (centres unmarked) [Compound 157], the CC50 at 72 h in series [1] and in series [2] was above 10 µM each time. Moreover, in the series on MBD3L2 RNA, the “qPCR MBD3L2 Inhib at 11 µM” value is recorded as “YES”.
Take `O=C(CCCc1cnco1)Nc1ccc(Cc2nc3ccccc3s2)cc1` [Compound 66]: the CC50 at 72 h in series [1] and in series [2] was above 10 µM throughout. The “qPCR MBD3L2 Inhib at 11 µM” value in the series on MBD3L2 RNA is reported as “YES”.
Consider `CC(=O)N[C@@H]1CC[C@H](C(=O)Nc2nc3ccccc3s2)C1` [Compound 182], for which the CC50 at 72 h in series [1] and in series [2] was above 10 µM each time. In the series with MBD3L2 RNA, the “qPCR MBD3L2 Inhib at 11 µM” value was “YES”.
Take `CC(=O)NCCCC(=O)Nc1cc(Cl)cc(-c2nc3cc(F)ccc3s2)c1` [Compound 102]: the CC50 at 72 h in series [1] and in series [2] was above 10 µM throughout. Moreover, the “qPCR MBD3L2 Inhib at 11 µM” value with MBD3L2 RNA is on record as “YES”.
Consider `O=C(CCCN1CCCC1=O)NCCCc1nc2ccccc2s1` [Compound 118], for which the CC50 at 72 h in series [1] and in series [2] was above 10 µM throughout. The “qPCR MBD3L2 Inhib at 11 µM” value in the series on MBD3L2 RNA is “YES”.
